Calls of active or inactive are those of the source. The rule behind the calls is not given here.

Consider 55 molecules from PubChem BioAssay AID1159565 (GlaxoSmithKline (GSK), 2015).

For this experiment, the system named is T. cruzi-infected H9C2 cardiomyocytes, high-content imaging. Description: anti-T. cruzi activity in infected cardiomyocytes – imaging, H9C2 host cardiomyocytes, host toxicity (AID 1159565).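 Note: infected cells incubated 72 h after plating.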
The mark [1] stands for this setting: measured here: H9C2 host cell toxicity.
Setting [2] is: measured here: amastigotes per cell.

Consider `Cc1cccc(NS(=O)(=O)c2ccc3c(c2)C(=O)c2cc(S(=O)(=O)Nc4cccc(C)c4C)ccc2-3)c1C`, for which the IC50 (usually the point on the concentration scale where inhibition reaches its midpoint) is 0.4 µM. Under setting [1], this molecule showed an IC50 of 32 µM. In addition, the IC50 under setting [2] amounted to 0.4 µM.
Regarding `N#Cc1nc(C=Cc2ccccc2)oc1NCc1cccnc1`, the IC50 was 0.4 µM. The same molecule registered an IC50 under setting [1] of 16 µM. In addition, under setting [2], the IC50 came out at 0.4 µM.
Regarding `CCc1cccc(CC)c1-n1c(SCC(=O)N2CC(=O)Nc3ccccc32)nnc1-c1cccnc1`, the IC50 is 32 µM. The same molecule returned an IC50 under setting [1] of more than 50 µM. The same molecule yielded an IC50 under setting [2] of 25 µM.
For `Cc1nn(C2CCS(=O)(=O)C2)c(C)c1CN(C)C(=O)C=Cc1sc2ccccc2c1Cl` (stereo not given), the IC50 is 0.5 µM. The molecule further returned an IC50 under setting [1] of more than 50 µM. This molecule yielded an IC50 under setting [2] of 0.32 µM.
In the case of `O=C1CCCCCC1(Cc1cnc[nH]1)c1ccc(Cl)cc1Cl` (stereo not given), the IC50 is 0.25 µM. Under setting [1], this molecule showed an IC50 of more than 50 µM. The IC50 under setting [2] stood at 0.32 µM.
On the same counts, the results for `CCCc1nc2nc(N)nc(N)c2cc1CC` are 0.32 µM, 13 µM and 0.079 µM.
As for `Cc1ccc(NC(=O)c2ccc(Cl)c(NC(=O)c3ccc([N+](=O)[O-])cc3)c2)cc1`, the IC50 is 0.5 µM. For the same molecule, the IC50 under setting [1] is more than 50 µM. Under setting [2], this molecule displayed an IC50 of 0.2 µM.
On the same counts, the results for `CCN(CC)S(=O)(=O)c1ccc(C)c(NC(=O)c2cc(Cl)c3c(c2)OCO3)c1` are > 50 µM (inactive), 25 µM and more than 50 µM.
The matching figures for `CCC(=O)Nc1ccccc1C(=O)Nc1ccccn1`: > 50 µM (inactive), more than 50 µM and more than 50 µM.
On the same counts, the results for `O=c1cc(NCCCNCc2c[nH]c3ccc(Br)cc23)[nH]c2ccccc12` are > 50 µM (inactive), more than 50 µM and 32 µM.
On to `NC(=O)c1cc(F)ccc1Nc1nc(NC2CCC(O)CC2)ncc1Cl` (stereo not given), for which the IC50 is 5 µM. The same molecule returned an IC50 under setting [1] of 1.6 µM. The same molecule came in with an IC50 under setting [2] of 1.6 µM.
On to `Cc1cc(N(C)C)nc(Nc2ccccc2C)n1`, for which the IC50 was 0.79 µM. The same molecule yielded an IC50 under setting [1] of more than 50 µM. The IC50 under setting [2] was 0.5 µM.
On the same counts, the results for `N#Cc1ccccc1S(=O)(=O)N1CCN(C(=O)CNC(=O)c2ccc3c(c2)OCO3)CC1` are 1 µM, more than 50 µM and 0.63 µM.
In the case of `O=C(C1CCCCC1)N1CCN(c2nnc(-c3ccccc3)c3ccccc23)CC1`, the IC50 is 0.63 µM. Under setting [1], the IC50 was more than 50 µM. This molecule gave an IC50 under setting [2] of 0.4 µM.
Turning to `COc1ccccc1C1CC(c2ccc(NS(C)(=O)=O)cc2)=NN1C(=O)c1cccs1` (stereo not given), the IC50 is > 50 µM (inactive). This molecule showed an IC50 under setting [1] of more than 50 µM. The molecule further returned an IC50 under setting [2] of more than 50 µM.
On to `Cc1cccnc1CN1CCN(CCCOc2ccc(-c3ccc(C(N)=O)cc3)cc2)CC1`, for which the concentration for half-maximal inhibition (IC50) was 20 µM. Under setting [1], this molecule had an IC50 of more than 50 µM. Moreover, the IC50 under setting [2] was 0.4 µM.
Consider `CCN(CC)c1ncc(C(=O)c2ccc([N+](=O)[O-])o2)s1`, for which the IC50 is 13 µM. For the same molecule, the IC50 under setting [1] is 5 µM. Besides, the IC50 under setting [2] is 7.9 µM.
On the same counts, the results for `O=C(CC1(O)C(=O)N(Cc2cccs2)c2ccc(Br)cc21)c1cccnc1` (stereo not given) are 40 µM, 4 µM and 25 µM.
The matching figures for `CN(Cc1nc2ccccc2s1)C(=O)C=Cc1cc2ccccc2o1`: 0.79 µM, more than 50 µM and 1 µM.
The matching figures for `Fc1ccc(Nc2nc(-c3ccccn3)cs2)cc1`: 5 µM, 1 µM and 5 µM.
Consider `CS(=O)(=O)NC1CCC(Nc2ncc(Br)c(Nc3ccccc3C(N)=O)n2)CC1` (stereo not given), for which the IC50 was 5 µM. This molecule came in with an IC50 under setting [1] of 0.5 µM. The IC50 under setting [2] was 2 µM.
`COc1ccc(C(=O)N2CCC(Nc3cccnc3)C2)c(OC)n1` (stereo not given): the IC50 was 0.79 µM. In addition, the IC50 under setting [1] was more than 50 µM. This molecule also returned an IC50 under setting [2] of 0.79 µM.
`c1ccc(-c2nc(NCc3ccco3)c3ccccc3n2)nc1`: the IC50 is 3.2 µM. This molecule also gave an IC50 under setting [1] of 2 µM. The IC50 under setting [2] is 4 µM.
On the same counts, the results for `COc1cccc(C(=O)[C@H]2C[C@@H]2CN(Cc2cccnc2)Cc2cccnc2)c1` are 0.063 µM, more than 50 µM and 0.05 µM.
On the same counts, the results for `N#Cc1cccc(CNc2ccc(-c3cnn(CC4CC4)c(=O)c3C#N)cc2)c1` are 7.9 µM, more than 50 µM and 5 µM.
As to `Cc1cc(C)n(-c2nc(NC(C)(C)C)nc(N3CCOCC3)n2)n1`, the IC50 was 10 µM. The molecule further registered an IC50 under setting [1] of 1.3 µM. For the same molecule, the IC50 under setting [2] came out at 3.2 µM.
On to `Cc1c([N+](=O)[O-])c(C(=O)Nc2sc3c(c2C#N)CCC(C)C3)nn1C` (stereo not given), for which the IC50 is 2.5 µM. Besides, under setting [1], the IC50 was more than 50 µM. Besides, the IC50 under setting [2] came out at 1.6 µM.
Take `CCCCc1cc(Nc2cc(C3CCC3)[nH]n2)nc(N2CCC2C(N)=O)n1` (stereo not given): the IC50 was 3.2 µM. The IC50 under setting [1] was 0.79 µM. In addition, the IC50 under setting [2] turned out to be 1.6 µM.
On the same counts, the results for `O=C(Nc1ccc(C(F)(F)F)cc1)Nc1cccc([N+](=O)[O-])c1` are 1.3 µM, 5 µM and 0.79 µM.
For the molecule `CCC(=O)Nc1ccc(C(=O)Nc2ccccc2-c2ccccc2)cc1`, the IC50 is 0.5 µM. Under setting [1], this molecule came in with an IC50 of more than 50 µM. In addition, under setting [2], the IC50 came out at 0.25 µM.
The matching figures for `CC1(C)CCC(=Cc2ccc(Cl)cc2)CC1(O)Cn1ccnc1` (stereo not given): 0.0079 µM, 32 µM and 0.005 µM.
Regarding `CCN(CC)S(=O)(=O)c1ccc(C(=O)Nc2cc(C)nn2-c2nc(C)c(C)c(=O)[nH]2)cc1`, the IC50 is 1.6 µM. Under setting [1], the IC50 was more than 50 µM. The molecule further gave an IC50 under setting [2] of 0.32 µM.
In the case of `COc1ccc(-c2nc3ncccc3o2)cc1NC(=O)c1cccs1`, the IC50 was 2.5 µM. In addition, the IC50 under setting [1] was more than 50 µM. The IC50 under setting [2] came out at 2 µM.
In the case of `COc1ccc(OC)c(S(=O)(=O)N(Cc2c(F)cccc2F)[C@@H]2CCN(C#N)C2)c1`, the IC50 was 13 µM. The IC50 under setting [1] came out at 16 µM. Besides, the IC50 under setting [2] stood at 6.3 µM.
On the same counts, the results for `Cc1[nH]nc(-c2nc3ccccc3[nH]2)c1C(=O)NC1CCCNC1` (stereo not given) are 0.063 µM, 3.2 µM and 0.04 µM.
On the same counts, the results for `CN(C)S(=O)(=O)c1ccc(-c2cnc(N)c(-c3nc4ccc(F)cc4[nH]3)c2)cc1` are > 50 µM (inactive), 1.3 µM and more than 50 µM.
In the case of `CCOc1ccc(CN(C)Cc2nc(N)nc(Nc3ccc(C)cc3)n2)cc1`, the IC50 is 5 µM. The molecule further yielded an IC50 under setting [1] of 3.2 µM. Under setting [2], this molecule yielded an IC50 of 5 µM.
Consider `CN(C)S(=O)(=O)c1cccc(CSc2nnc(-c3ccc4c(c3)OCO4)o2)c1`, for which the IC50 was 0.1 µM. The IC50 under setting [1] was more than 50 µM. Moreover, the IC50 under setting [2] stood at 0.05 µM.
The matching figures for `O=C1NCCn2ccc(Nc3nc(NC4CCC(O)CC4)ncc3Cl)c21` (stereo not given): 20 µM, 0.4 µM and 3.2 µM.
In the case of `CCNc1cc(-c2ccccn2)nc(Nc2ccc(OC)cc2)n1`, the IC50 was 3.2 µM. For the same molecule, the IC50 under setting [1] is 0.32 µM. Under setting [2], the IC50 stood at 2.5 µM.
On the same counts, the results for `COc1ccc(-c2cnc(NC(=O)c3ccc(F)cc3)n2C)cc1` are 5 µM, more than 50 µM and 2 µM.
As for `CCCCCNC(=O)c1c[nH]c2ccc(S(=O)(=O)N(C)c3ccc(OCC)cc3)cc2c1=O`, the IC50 is > 50 µM (inactive). Moreover, under setting [1], the IC50 was more than 50 µM. The molecule also yielded an IC50 under setting [2] of more than 50 µM.
On to `O=C(Cn1cnc2c(-c3ccccc3)csc2c1=O)N1CCCCC1`, for which the IC50 was 4 µM. Also, the IC50 under setting [1] is more than 50 µM. Under setting [2], this molecule registered an IC50 of 3.2 µM.
Regarding `Cc1ccc(C)c(CN2C(=O)NC3(CCc4ccccc43)C2=O)c1` (stereo not given), the IC50 is 20 µM. The same molecule registered a half-maximal inhibitory concentration (IC50) under setting [1] of more than 50 µM. Also, under setting [2], the IC50 turned out to be 7.9 µM.
The matching figures for `CCCCn1nnnc1CSc1nc(C)cc(C)c1C#N`: 0.2 µM, more than 50 µM and 0.1 µM.
The matching figures for `COc1ccc(-c2cc(C)no2)cc1S(=O)(=O)Nc1ccc(C)c(C)c1`: 7.9 µM, 16 µM and 5 µM.
On the same counts, the results for `Cc1[nH]c2ccccc2c(=O)c1Cc1c(C)[nH]c2ccccc2c1=O` are 3.2 µM, more than 50 µM and 1 µM.
For the molecule `C[C@@H](Oc1cc(-n2cnc3ccc(CC(O)CO)cc32)sc1C(N)=O)c1ccccc1Cl` (stereo not given in full), the IC50 was 50 µM. This molecule also came in with an IC50 under setting [1] of 0.13 µM. Besides, the IC50 under setting [2] worked out at 13 µM.
The matching figures for `COc1ccc(NS(=O)(=O)c2cccc(NC(=O)c3cc(F)cc(F)c3)c2)cc1`: 0.5 µM, more than 50 µM and 0.5 µM.
As to `COc1ncc(-c2ccc3nccc(-c4ccncc4)c3c2)cc1NS(=O)(=O)C1CC1`, the IC50 was 2.5 µM. The molecule also returned an IC50 under setting [1] of 0.79 µM. Moreover, the IC50 under setting [2] was 2 µM.
In the case of `CC(=O)Nc1ccc(-c2ccnc(Nc3cccc(C#N)c3)n2)cc1`, the IC50 is 6.3 µM. This molecule registered an IC50 under setting [1] of 13 µM. Under setting [2], this molecule gave an IC50 of 3.2 µM.
For the molecule `NC(=O)c1ccc(-c2cccc(OCCN3CCN(C4CCCCC4)CC3)c2)cc1`, the IC50 is 1.6 µM. The same molecule yielded an IC50 under setting [1] of more than 50 µM. Moreover, the IC50 under setting [2] was determined as 0.79 µM.
In the case of `COc1cnc2ccc(=O)n(CCN3CCC(NC/C=C/c4cc(F)ccc4F)CC3)c2c1`, the IC50 was 0.02 µM. Moreover, under setting [1], the IC50 is 16 µM. In addition, under setting [2], the IC50 was found to be 0.01 µM.
For `O=C(Nc1ccccc1)Nc1nc(-c2ccccn2)cs1`, the IC50 was 1 µM. For the same molecule, the IC50 under setting [1] worked out at 1 µM. The molecule further returned an IC50 under setting [2] of 0.63 µM.
`N#Cc1cc(N2CCCC2=O)ccc1Sc1ccccc1CO`: the IC50 is 0.4 µM. Further, under setting [1], the IC50 was more than 50 µM. Further, the IC50 under setting [2] was determined as 0.25 µM.
